Measured values: patent US20240116985A1, “STAPLED PEPTIDES AND METHODS THEREOF” (priority 2020, published 2024)
pIC50: −log10 of the molar value. Converted amounts (≈) assume the structure as drawn. Read-outs that look alike come from different tables or passages of the source.

Key:
[1] = target: T1, full-length beta-Catenin (Uniprot ID P35222) (Homo sapiens, UniProt P35222); assay: Fluorescence polarization IC50 (beta-catenin / 5FAM-TCF4 10-53 competition); assay type: binding
T1 construct: 10 nM full-length beta-Catenin (Uniprot ID P35222)
T1 sequence (P35222 1-781): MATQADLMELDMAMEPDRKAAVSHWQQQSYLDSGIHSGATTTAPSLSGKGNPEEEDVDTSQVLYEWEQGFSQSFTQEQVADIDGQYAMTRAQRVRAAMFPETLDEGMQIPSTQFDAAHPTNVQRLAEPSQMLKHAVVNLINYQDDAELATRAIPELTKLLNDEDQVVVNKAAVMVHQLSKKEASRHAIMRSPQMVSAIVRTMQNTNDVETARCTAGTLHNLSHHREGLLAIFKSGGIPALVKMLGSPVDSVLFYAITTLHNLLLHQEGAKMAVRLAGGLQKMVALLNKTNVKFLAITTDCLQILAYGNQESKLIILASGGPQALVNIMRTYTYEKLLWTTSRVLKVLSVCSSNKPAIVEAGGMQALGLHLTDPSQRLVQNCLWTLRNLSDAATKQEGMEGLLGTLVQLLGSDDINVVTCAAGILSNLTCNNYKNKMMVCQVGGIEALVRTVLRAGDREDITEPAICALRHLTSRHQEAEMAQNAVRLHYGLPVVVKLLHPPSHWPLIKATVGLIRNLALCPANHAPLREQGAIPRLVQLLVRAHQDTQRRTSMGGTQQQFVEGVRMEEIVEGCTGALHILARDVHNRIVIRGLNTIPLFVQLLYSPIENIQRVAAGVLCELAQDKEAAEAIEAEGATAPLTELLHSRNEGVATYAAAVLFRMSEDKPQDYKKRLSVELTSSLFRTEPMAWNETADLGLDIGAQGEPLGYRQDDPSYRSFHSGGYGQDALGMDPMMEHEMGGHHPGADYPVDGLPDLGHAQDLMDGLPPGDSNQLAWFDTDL

Solubility in PBS = assay type: physicochemical
Procedure, shortened: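 PBS sample ultracentrifuged; supernatant run on HPLC vs. 50 μM peptide in DMSO standard. Solubility = (PBS peak area / DMSO peak area) × 50 uM.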

[2] = target: T2, beta-catenin/TCF4 engagement (Homo sapiens, UniProt P35222); assay: Nano-BRET target engagement assay (B-cat-Halo & TCF4-Luc in HEK293 cells); assay type: cell-based
T2 construct: expressed in transfected cells; host or cells: HEK293
T2 sequence (P35222 1-781): T1 sequence (P35222 1-781)

[3] = fluorescence polarization, read-out: beta-Catenin FP IC50
[4] = absolute IC50, read-out: NanoBRET Abs IC50

Row | Structure (SMILES) | pIC50 [1, 3] | Solubility (Solubility in PBS; Solubility (uM)) [µM] | pIC50 [2, 4] | Solubility (Solubility in PBS) [µM] | pIC50 ([1]; beta-Catenin FP IC50, fluorescence polarization) | pIC50 ([2]; NanoBRET Abs IC50, absolute IC50)
1 | COCCOCCC(=O)N1CCC[C@]12CC=CCCCC1(CCCC=CCCCCCC[C@@](C)(C(=O)N[C@@H](Cc3ccccc3Cl)C(=O)N[C@@H](Cc3csc4ccccc34)C(=O)N[C@@H](CCC(N)=O)C(N)=O)NC(=O)[C@H]([C@@H](C)O)NC(=O)[C@H](Cc3ccccc3)NC(=O)[C@H](C)NC(=O)[C@H](C)NC(=O)[C@H](CC(=O)O)NC(=O)[C@H](CC(=O)O)NC1=O)NC(=O)[C@H](CC(C)(C)C)NC(=O)[C@H](CC(=O)O)NC2=O (stereo partly drawn) [I-1255, mPEG2-PL3-Asp-Npg-B5-Asp-Asp-Ala-Ala-Phe-Thr-S8-2C1F-BztA-Gln-NH2] | 7.49 |  | < 4.70 | 50 (≈ 98.9 µg/mL) |  | 
2 | COCCC(=O)N1CCC[C@]12CC=CCCCC1(CCCC=CCCCCCC[C@@](C)(C(=O)N[C@@H](Cc3ccccc3Cl)C(=O)N[C@@H](Cc3csc4ccccc34)C(=O)N[C@@H](CCC(N)=O)C(N)=O)NC(=O)[C@H]([C@@H](C)O)NC(=O)[C@H](Cc3ccccc3)NC(=O)[C@H](C)NC(=O)[C@H](C)NC(=O)[C@H](CC(=O)O)NC(=O)[C@H](CC(=O)O)NC1=O)NC(=O)[C@H](CC(C)(C)C)NC(=O)[C@H](CC(=O)O)NC2=O (stereo partly drawn) [I-1261, MeOPr-PL3-Asp-Npg-B5-Asp-Asp-Ala-Ala-Phe-Thr-S8-2C1F-BztA-Gln-NH2] | 7.51 |  | 4.70 | 50 (≈ 96.7 µg/mL) |  | 
3 | CC(=O)N1CCC[C@]12CC=CCCCC1(CCCC=CCCCOC(=O)N3CC[C@@](C(=O)N[C@@H](Cc4ccccc4)C(=O)N[C@@H](Cc4csc5ccccc45)C(=O)N[C@@H](CO)C(N)=O)(C3)NC(=O)[C@H]([C@@H](C)O)NC(=O)[C@H](Cc3ccccc3)NC(=O)[C@H](C)NC(=O)[C@H](CC(C)C)NC(=O)[C@H]([C@@H](C)O)NC(=O)[C@H](CC(=O)O)NC1=O)NC(=O)[C@H](CC(C)(C)C)NC(=O)[C@H](CC(=O)O)NC2=O (stereo partly drawn) [I-1264, Ac-PL3-Asp-Npg-B5-Asp-Thr-Leu-Ala-Phe-Thr-PyrS2-Phe-BztA-Ser-NH2] |  |  |  | 10 (≈ 18.9 µg/mL) | 6.80 | < 4.70
4 | CC(=O)N1CCC[C@]12CC=CCCCC1(CCCC=CCCCOC(=O)N3CC[C@@](C(=O)N[C@@H](Cc4ccccc4)C(=O)N[C@@H](Cc4csc5ccccc45)C(=O)N[C@@H](CO)C(N)=O)(C3)NC(=O)[C@H]([C@@H](C)O)NC(=O)[C@H](Cc3ccccc3)NC(=O)[C@H](CC(C)C)NC(=O)[C@H](C)NC(=O)[C@H]([C@@H](C)O)NC(=O)[C@H](CC(=O)O)NC1=O)NC(=O)[C@H](CC(C)(C)C)NC(=O)[C@H](CC(=O)O)NC2=O (stereo partly drawn) [I-1265, Ac-PL3-Asp-Npg-B5-Asp-Thr-Ala-Leu-Phe-Thr-PyrS2-Phe-BztA-Ser-NH2] | 6.82 |  | 4.64 | 10 (≈ 18.9 µg/mL) |  | 
5 | CC(=O)N1CCC[C@]12CC=CCCCC1(CCCC=CCCCOC(=O)N3CC[C@@](C(=O)N[C@@H](Cc4ccccc4)C(=O)N[C@@H](Cc4csc5ccccc45)C(=O)N[C@@H](CO)C(N)=O)(C3)NC(=O)[C@H]([C@@H](C)O)NC(=O)[C@H](Cc3cccc4ccccc34)NC(=O)[C@H](C)NC(=O)[C@H](C)NC(=O)[C@H]([C@@H](C)O)NC(=O)[C@H](CC(=O)O)NC1=O)NC(=O)[C@H](CC(C)(C)C)NC(=O)[C@H](CC(=O)O)NC2=O (stereo partly drawn) [I-1266, Ac-PL3-Asp-Npg-B5-Asp-Thr-Ala-Ala-1NapA-Thr-PyrS2-Phe-BztA-Ser-NH2] | 6.12 |  | < 4.70 | 10 (≈ 18.9 µg/mL) |  | 
6 | CC(=O)N1CCC[C@]12CC=CCCCC1(CCCC=CCCCOC(=O)N3CC[C@@](C(=O)N[C@@H](Cc4ccccc4)C(=O)N[C@@H](Cc4csc5ccccc45)C(=O)N[C@@H](CO)C(N)=O)(C3)NC(=O)[C@H]([C@@H](C)O)NC(=O)[C@H](Cc3ccc4ccccc4c3)NC(=O)[C@H](C)NC(=O)[C@H](C)NC(=O)[C@H]([C@@H](C)O)NC(=O)[C@H](CC(=O)O)NC1=O)NC(=O)[C@H](CC(C)(C)C)NC(=O)[C@H](CC(=O)O)NC2=O (stereo partly drawn) [I-1267, Ac-PL3-Asp-Npg-B5-Asp-Thr-Ala-Ala-2NapA-Thr-PyrS2-Phe-BztA-Ser-NH2] | 6.74 |  | 4.43 | 10 (≈ 18.9 µg/mL) |  | 
7 | CC(=O)N1CCC[C@]12CC=CCCCC1(CCCC=CCCCOC(=O)N3CC[C@@](C(=O)N[C@@H](Cc4cccc5ccccc45)C(=O)N[C@@H](Cc4csc5ccccc45)C(=O)N[C@@H](CO)C(N)=O)(C3)NC(=O)[C@H]([C@@H](C)O)NC(=O)[C@H](Cc3ccccc3)NC(=O)[C@H](C)NC(=O)[C@H](C)NC(=O)[C@H]([C@@H](C)O)NC(=O)[C@H](CC(=O)O)NC1=O)NC(=O)[C@H](CC(C)(C)C)NC(=O)[C@H](CC(=O)O)NC2=O (stereo partly drawn) [I-1269, Ac-PL3-Asp-Npg-B5-Asp-Thr-Ala-Ala-Phe-Thr-PyrS2-1NapA-BztA-Ser-NH2] | 6.76 |  | 4.75 | 10 (≈ 18.9 µg/mL) |  | 

Now from value to compound, other results behind:

Row | pIC50 [1, 3] | Solubility (Solubility in PBS; Solubility (uM)) [µM] | pIC50 [2, 4] | Solubility (Solubility in PBS) [µM] | Structure (SMILES) | pIC50 ([1]; beta-Catenin FP IC50, fluorescence polarization) | pIC50 ([2]; NanoBRET Abs IC50, absolute IC50)
8 | 7.85 | 42 (≈ 84.3 µg/mL) | < 4.70 |  | COCCOCCC(=O)N1CCC[C@]12CC=CCCCC1(CCCC=CCCCOC(=O)N3CC[C@@](C(=O)N[C@@H](Cc4ccccc4Cl)C(=O)N[C@@H](Cc4csc5ccccc45)C(=O)N[C@@H](C(N)=O)[C@H](C)O)(C3)NC(=O)[C@H](CC(N)=O)NC(=O)[C@H](Cc3ccccc3)NC(=O)[C@H](C)NC(=O)[C@H](C)NC(=O)[C@H](CC(=O)O)NC(=O)[C@H](CC(=O)O)NC1=O)NC(=O)[C@H](CC(C)(C)C)NC(=O)[C@H](CC(=O)O)NC2=O (stereo partly drawn) [I-1253, mPEG2-PL3-Asp-Npg-B5-Asp-Asp-Ala-Ala-Phe-Asn-PyrS2-2C1F-BztA-dThr-NH2] |  | 
9 | 7.64 |  | 4.62 | 50 (≈ 96.3 µg/mL) | C[C@@H]1NC(=O)[C@H](C)NC(=O)[C@H](CC(=O)O)NC(=O)[C@H](CC(=O)O)NC(=O)C2(CCCC=CCCCCCC[C@@](C)(C(=O)N[C@@H](Cc3ccccc3Cl)C(=O)N[C@@H](Cc3csc4ccccc34)C(=O)N[C@@H](CCC(N)=O)C(N)=O)NC(=O)[C@H]([C@@H](C)O)NC(=O)[C@H](Cc3ccccc3)NC1=O)CCCC=CC[C@]1(CCCN1S(C)(=O)=O)C(=O)N[C@@H](CC(=O)O)C(=O)N[C@@H](CC(C)(C)C)C(=O)N2 (stereo partly drawn) [I-1260, MeSO2-PL3-Asp-Npg-B5-Asp-Asp-Ala-Ala-Phe-Thr-S8-2C1F-BztA-Gln-NH2] |  | 
10 | 7.37 | 12 (≈ 22.1 µg/mL) | 4.70 |  | CC(=O)N1CCC[C@]12CC=CCCCC1(CCCC=CCCCOC(=O)N3CC[C@@](C(=O)N[C@@H](Cc4ccccc4)C(=O)N[C@@H](Cc4csc5ccccc45)C(=O)N[C@@H](CO)C(N)=O)(C3)NC(=O)[C@H]([C@@H](C)O)NC(=O)[C@H](Cc3ccccc3)NC(=O)[C@H](C)NC(=O)[C@H](C)NC(=O)[C@H]([C@@H](C)O)NC(=O)[C@H](CC(=O)O)NC1=O)NC(=O)[C@H](CC(C)(C)C)NC(=O)[C@H](CC(=O)O)NC2=O (stereo partly drawn) [I-1263, Ac-PL3-Asp-Npg-B5-Asp-Thr-Ala-Ala-Phe-Thr-PyrS2-Phe-BztA-Ser-NH2] |  | 
11 | 8.05 | 32 (≈ 64.2 µg/mL) | < 4.70 |  | CC(=O)N1CCC[C@]12CC=CCCCC1(CCCC=CCCCOC(=O)N3CC[C@@](C(=O)N[C@@H](Cc4ccccc4Cl)C(=O)N[C@@H](Cc4csc5ccccc45)C(=O)N[C@H](C(N)=O)[C@@H](C)O)(C3)NC(=O)[C@H]([C@@H](C)O)NC(=O)[C@H](Cc3ccccc3)NC(=O)[C@H](C)NC(=O)[C@H](CCCCNC(C)C)NC(=O)[C@H](CC(=O)O)NC(=O)[C@H](CC(=O)O)NC1=O)NC(=O)[C@H](CC(C)(C)C)NC(=O)[C@H](CC(=O)O)NC2=O (stereo partly drawn) [I-1273, Ac-PL3-Asp-Npg-B5-Asp-Asp-iPrLys-Ala-Phe-Thr-PyrS2-2C1F-BztA-Thr-NH2] |  | 
